In patent EP3821949B1, “PHARMACEUTICAL COMPOSITION FOR USE IN THE TREATMENT OF A CANCER ASSOCIATED WITH THE ACTIVATION OF GALECTIN-1” (Trineo Biotechnology Co. Ltd, priority 2019, dated 2021):
pIC50: −log10 of the molar value. Several values for one entry are separate records, joined by “and”; a condition that tells them apart may be missing. Identical values can stand only once.

Columns and labels:
Assay type in all cases: cell-based
[1] = system: myeloma ARH-77 cells; experiment: MTT assay on myeloma ARH-77 cells, chemotherapeutic drug alone or combined with TN-GL-01 or a comparative drug; details: for pIC50: Homo sapiens, ARH-77 cells, chemotherapeutic agent alone (control)
Protocol: (§1) Ovarian cancer cell ES-2 and myeloma cell line ARH-77 were used in the present disclosure. Cells was cultured and maintained in Dulbecco's modified Eagle media (DMEM) supplemented with 10 % fetal bovine serum (FBS), 100 IU/ml penicillin, […] streptomycin, 2 mM glutamine, nonessential amino acids and sodium pyruvate in 5% CO2 at 37 °C. Cells were grown and maintained in Petri dishes (each was 10 cm in diameter) until they reached 80% confluence, and then were subject to cell passages. Briefly, cells were first washed with phosphate buffer solution (PBS, 3 ml) once, then treated with 0.05% Trypsin/0.025% EDTA solution (1 mL) for 5 min so that the attached cells become suspended. The suspended cells were harvested and 2 mL fresh culture media were added therein to neutralize any remaining activity of trypsin. Cell density was adjusted by adding appropriate amounts of culture medium to the cell suspension, which was then used to seed the culture plates. The plates were then returned to the incubator, and cultured in accordance with the steps described above.
Cells were seeded in 96-well plates with a density of 3,000 cells/well and cultured in accordance with the procedures described above. On the day when cell activity analysis was to be conducted, cells were first treated with various concentrations of the triterpenoids of the present disclosure, imatinib or gefitinib for at least 48 hrs, before subjecting them to MTT assay.
(§2) 50 µL of the MTT stock solution (5 mg MTT dissolved in 1 ml of sterile PBS) was added to each well, and 50 µL of the MTT stock solution was added to 500 µL of medium alone and used as a negative control. Each sample was incubated at 37°C for 4 hours. Aliquots (450 µl) from each sample were taken to a new well of 48-well culture plate, adding 100µL DMSO, mixing thoroughly using the pipette and reacted at 37°C for 20 min and absorbance was measured at 570 nm.
In this example, the effect of TN-GL-01 composition of example 1.1 on the cell killing effect of a chemotherapeutic drug (i.e., etoposide, doxorubicin, cisplatin, and paclitaxel) on myeloma ARH-77 cells was investigated, in which cyclophosphamide served as a comparative drug. Results are summarized in Tables 1 to 3, and Figures 3 and 4.
To determine the effects of combined use of TN-GL-01 and any other three drugs including paclitaxel, doxorubicin, and cisplatin, the statistical differences between expected value and oberved value of the survival rate were calculated. If no significantance existed between the expected and observed values, the effect is termed"additivity (p > 0.05)". […] The expected value was determined by multifying the survival rate of each drug in specific dose. The obtained value and value of each survival rate were measured by MMT assay (Fig. 3 and Fig. 4).

[2] = system: ES-2 cells; experiment: MTT assay (cell activity analysis) on ovarian cancer ES-2 cells; details: treatment at least 48 hrs
Protocol: as §1, with “The suspended cells were harvested and 2 mL fresh culture media were added therein to neutralize any remaining activity of trypsin. Cell density was adjusted by adding appropriate amounts of culture medium to the cell suspension, which was then used to seed the culture plates. The plates were then returned to the incubator, and cultured in accordance with the steps described above.” left out
as §2, with “Each sample was incubated at 37°C for 4 hours.” left out
The effects of the TN-GL-01 composition of example 1.1 on ovarian cancer cells (i.e., ES-2 cells) were evaluated by MTT assay in accordance with procedures described in the "Material and Methods" section.

[3] = system: galectin-1; experiment: Western blot analysis of galectin-1 expression in ES-2 cells; details: Figure 2
Protocol: Samples were respectively subjected to SDS-PAGE, transferred to PVDF membranes. These blots were blocked with 5% nonfat milk powder in TBS-0.1% Tween-20 for 30 minutes, followed by incubation with primary antibodies at 4°C overnight and then horseradish peroxidaseconjugated secondary antibodies (Amersham Biosciences, Piscataway). Imaging of bands was performed using Pierce ECL Western Blotting Substrate (Thermo Fisher Scientific) and ImageQuant LAS-4000 (GE Healthcare).
In this example, the effects of TN-GL-01 composition on the expression of galectin-1 in ERK (extracellular-signal-regulated kinase) pathway was invesigated via western blot analysis. […] Thus, it was concluded that the present TN-GL-01 composition exerted its function through suppression of galectin -1.

[4] = Table 2, second agent alone: TN-GL-01 20 µg/mL, Doxorubicin 100 nM, Cisplatin 3 µM
[5] = Table 3, second agent alone: TN-GL-01 20 µg/mL, Paclitaxel 40 µM, Cisplatin 3 µM

Row | pIC50 [1] | SMILES | Cell Survival Rate, single drug (factor of expected value) [1, 4] | Cell Survival Rate, single drug (factor of expected value) [1, 5] | 50% inhibition of ES-2 cells (IC50) [2] | expression of galectin-1 [3] | also measured
1 |  | N.N.[Cl][Pt][Cl] [Cisplatin] | 0.65 | 0.69 |  |  | 
2 | 7.00 | COc1cccc2c1C(=O)c1c(O)c3c(c(O)c1C2=O)C[C@@](O)(C(=O)CO)C[C@@H]3O[C@H]1C[C@H](N)[C@H](O)[C@H](C)O1 [Doxorubicin] | 0.58 |  |  |  | 
3 | 6.38 | COc1cc([C@@H]2c3cc4c(cc3[C@@H](O[C@@H]3O[C@@H]5CO[C@@H](C)O[C@H]5[C@H](O)[C@H]3O)[C@H]3COC(=O)[C@H]23)OCO4)cc(OC)c1O [Etoposide] |  |  |  |  | 
4 |  | C/C(=C/CC[C@@H](C)[C@H]1CC[C@@]2(C)C3=CC[C@H]4C(C)(C)C(=O)CC[C@]4(C)C3=CC[C@]12C)C(=O)O [GAS, ganoderic acid S] |  |  | 58.3 µg/mL | effective in suppressing | 
5 |  | CC(=O)O[C@@H](C/C=C(\C)C(=O)O)[C@@H](C)[C@H]1C[C@H](OC(C)=O)[C@@]2(C)C3=CC[C@H]4C(C)(C)[C@H](OC(C)=O)CC[C@]4(C)C3=CC[C@]12C [GAT, ganoderic acid T] |  |  | 24.5 µg/mL | effective in suppressing | 
6 |  | CC(=O)O[C@H]1C(=O)[C@@]2(C)[C@H]([C@H](OC(=O)c3ccccc3)[C@]3(O)C[C@H](OC(=O)[C@H](O)[C@@H](NC(=O)c4ccccc4)c4ccccc4)C(C)=C1C3(C)C)[C@]1(OC(C)=O)CO[C@@H]1C[C@@H]2O [Paclitaxel] |  | 0.65 |  |  | Cell Survival Rate, single drug (factor of expected value) ([1]; Table 2, Paclitaxel 62.5 nM alone): 0.68 × 0.82 = 0.56±0.03 and 0.68; Cell Survival Rate, single drug (factor of expected value) ([1]; Table 2, Paclitaxel 125 nM alone): 0.50 × 0.82 = 0.41±0.03 and 0.50
